The values that follow come from patent US10775394B2, “Immunoassay for phenethylamines of the 2C and DO sub-families” (Randox Laboratories Limited, priority 2013, dated 2020).

Where a name gives a salt, the structure may show the parent alone.

The test system of one test is Randox MDPV kit. Particulars: compared to 100% for (±)-MDPV, Swortwood et al 2013, Table 7; cited from earlier work.
Test [1] has as its system Randox mephedrone/methcathinone kit. The note with it: compared to 100% for (±)-mephedrone, Swortwood et al 2013, Table 7; cited from earlier work.
Test [2] deals with DO antibody 1 (IgG fraction of antiserum raised to DOB-BSA). In words: Competitive microtitre plate ELISA, DO antibody 1 (antiserum raised to DOB-BSA). Particulars: for % Cross-Reactivity: DO antibody 1, relative to DOB = 100%, calibration curves 0-40 ng/ml. Format: binding. On the procedure: The appropriate antibody coating dilution was determined using standard ELISA checkerboard techniques. The plate was incubated for 2 hours at 37° C., washed 4 times over 10 minutes with Tris buffered saline containing Tween 20 (TBST) and tapped dry. […] The appropriate dilution of conjugate was also determined using standard ELISA checkerboard techniques. The plate was incubated at 25° C. for 1 hour. Excess unbound conjugate was removed by washing 6 times over a 10-15 minute period with TBST and tapped dry. 125 μl of tetramethylbenzidine (TMB) substrate solution was added to each well of the plate that was then incubated for 20 minutes in the dark at room temperature. The reaction was terminated by addition of 125 μl 0.2 M H2SO4 to each well. The absorbance was measured at 450 nm using a microtitre plate reader.
For orientation: In an ELISA, binding on a coated surface is turned into a signal by an enzyme label.

In test [3] the test system is 2C antibody (IgG fraction of antiserum raised to 2C-B-BSA). In words: Competitive microtitre plate ELISA, 2C antibody (antiserum raised to 2C-B-BSA). Particulars: for % Cross-Reactivity / IC50 (standard concentration which produces 50% inhibition of maximal signal): 2C antibody; for % Cross-Reactivity: relative to 2C-B = 100%, calibration curves 0-80 ng/ml; for IC50 (standard concentration which produces 50% inhibition of maximal signal): 2C-B standard, competitive ELISA. Format: binding. How it is done:
The wells of an enhanced binding 96 well polystyrene microtitre plate were coated with IgG fraction of antiserum raised to 2C-B-BSA, diluted in 10 mM Tris, pH8.5 (125 μl/well). The appropriate antibody coating dilution was determined using standard ELISA checkerboard techniques. The plate was incubated overnight at 4° C., washed 4 times over 10 minutes with Tris buffered saline containing Tween 20 (TBST) and tapped dry. Standard solutions of 2CB were prepared in TBST at 0, 1.25, 2.5, 5, 10, 20, 40 & 80 ng/ml, and 50 μl of each was added to the appropriate wells. 75 μl of conjugate (Example 11) diluted in Tris buffer (pH 7.2) containing EDTA, D-mannitol, sucrose, thimerosal and BSA, was added to each of the wells. The appropriate dilution of conjugate was also determined using standard ELISA checkerboard techniques. The plate was incubated at 25° C. for 1 hour. Excess unbound conjugate was removed by washing 6 times over a 10-15 minute period with TBST and tapped dry. 125 μl of tetramethylbenzidine (TMB) substrate solution was added to each well of the plate that was then incubated for 20 minutes in the dark at room temperature. The reaction was terminated by addition of 125 μl 0.2 M H2SO4 to each well. The absorbance was measured at 450 nm using a microtitre plate reader. In order to determine the specificity of the competitive ELISAs, standard solutions of a range of structurally similar compounds were prepared in TBST. Using calibration curves generated from these compounds (0-80 ng/ml) percentage cross-reactivity was determined.

In test [4] the test system is DO antibody 2 (IgG fraction of antiserum raised to DOB-BSA). In words: Competitive microtitre plate ELISA, DO antibody 2 (antiserum raised to DOB-BSA). In kind it is binding. The note with it: for % Cross reactivity: DO antibody 2, relative to DOB = 100. How it is done:
The wells of an enhanced binding 96 well polystyrene microtitre plate were coated with IgG fraction of antiserum raised to DOB-BSA, diluted in 10 mM Tris, pH8.5 (125 μl/well). The appropriate antibody coating dilution was determined using standard ELISA checkerboard techniques. The plate was incubated for 2 hours at 37° C., washed 4 times over 10 minutes with Tris buffered saline containing Tween 20 (TBST) and tapped dry. Standard solutions of DOB were prepared in TBST at 0, 0.625, 1.25, 2.5, 5, 10, 20 & 40 ng/ml, and 50 μl of each was added to the appropriate wells. 75 μl of conjugate (Example 22) diluted in Tris buffer (pH 7.2) containing EDTA, D-mannitol, sucrose, thimerosal and BSA, was added to each of the wells. The appropriate dilution of conjugate was also determined using standard ELISA checkerboard techniques. The plate was incubated at 25° C. for 1 hour. Excess unbound conjugate was removed by washing 6 times over a 10-15 minute period with TBST and tapped dry. 125 μl of tetramethylbenzidine (TMB) substrate solution was added to each well of the plate that was then incubated for 20 minutes in the dark at room temperature. The reaction was terminated by addition of 125 μl 0.2 M H2SO4 to each well. The absorbance was measured at 450 nm using a microtitre plate reader. In order to determine the specificity of the competitive ELISAs, standard solutions of a range of structurally similar compounds were prepared in TBST. Using calibration curves generated from these compounds (0-40 ng/ml), the cross-reactivity was determined.

Test [5] has as its system AxSYM amphetamine/methamphetamine II assay. The note with it: even when tested at 5,000 ng/mL, Petrie et al 2013; cited from earlier work.
The subject of test [6] is EMIT II Plus amphetamines assay. Particulars: tested at 5,000 ng/ml, Petrie et al 2013; cited from earlier work.
Test [7] concerns CEDIA amphetamine/ecstasy immunoassay. The note with it: CEDIA assay; tested at 5,000 ng/ml; Petrie et al 2013; cited from earlier work.

For `CCCC(C(=O)c1ccc2c(c1)OCO2)N1CCCC1` (racemic) [(±)-MDPV], in the test on Randox MDPV kit, the cross-reactivity is given as 100%.

On to `CNC(C)C(=O)c1ccc(C)cc1` (racemic) [(±)-mephedrone, mephedrone], for which, in test [1], the cross-reactivity was 100%.

For `COc1cc(CC(C)N)c(OC)cc1Br` (racemic) [DOB, 1-(4-bromo-2,5-dimethoxyphenyl)propan-2-amine], the “% Cross-Reactivity” value is 100.0% in test [2] and below 1.0% in test [3]. Besides, the “% B/Bo” value amounted to 64.5% in test [2] (DOB 0.625 ng/ml); 58.1% in test [2] (DOB 1.25 ng/ml); 46.3% in test [2] (DOB 2.5 ng/ml); 34.6% in test [2] (DOB 5 ng/ml); 27.5% in test [2] (DOB 10 ng/ml); 17.5% in test [2] (DOB 20 ng/ml). Besides, the “% B/Bo” value in test [2] (DOB 40 ng/ml) came out at 11.5%. The IC50 entry in test [4] (DO antibody 2, competitive ELISA) is “IC50 - 0.437 ng/mL”. For the same compound, in test [4], the “% Cross reactivity” value is given as 100%. For the same compound, the cross-reactivity entry in test [5] is “does not show cross-reactivity”; in test [6], 39.1%; in test [7] it was 8.5%.

`COc1cc(CC(C)N)c(OC)cc1C` (racemic) [DOM, 1-(2,5-dimethoxy-4-methylphenyl)propan-2-amine]: the “% Cross-Reactivity” value in test [2] stood at 112.7%. The “% Cross reactivity” value in test [4] is given as 49%. The cross-reactivity entry in test [5] is recorded as “does not show cross-reactivity”; in test [6], 23.2%; in test [7], 3.9%.

As for `NCCc1ccccc1` [(+)-Phenethylamine], the “% Cross-Reactivity” value in test [2] and in test [3] was below 1.0% each time. The “binding of the antibody described in Table 2” value in test [2] (summary in words) is listed as “not”. The “binding of the antibody described in Table 4” value in test [3] (summary in words) is listed as “not”.

As to `CC(N)Cc1ccccc1` (centres unmarked) [Amphetamine], the “% Cross-Reactivity” value in test [2] is listed as below 1.0%.

As to `CC(N)Cc1c2ccoc2c(Br)c2ccoc12` (centres unmarked) [Bromo DragonFly (HCl), 1-(4-Bromofuro[2,3-f][1]benzofuran-8-yl)propan-2-amine], in test [4], the “% Cross reactivity” value is 96%.

As to `COc1cc(CC(C)N)c(OC)cc1Cl` (centres unmarked) [DOC, 4-chloro-2,5dimethoxyamphetamine], in test [4], the “% Cross reactivity” value turned out to be 47%.

As for `CCc1cc(OC)c(CC(C)N)cc1OC` (centres unmarked) [DOET], the “% Cross reactivity” value in test [4] was found to be 50%. Moreover, the cross-reactivity result in test [5] is listed as “does not show cross-reactivity”; in test [6] it was 18.8%; in test [7], 4.8%.

With `COc1cc(CC(C)N)c(OC)cc1I.Cl` (centres unmarked) [DOI HCl], the “% Cross reactivity” value in test [4] is on record as 73%.

For the compound `COc1cc([N+](=O)[O-])c(OC)cc1CC(C)N` (centres unmarked) [DON, 1-(2,5-dimethoxy-4-nitrophenyl)propan-2-amine], the “% Cross-Reactivity” value in test [2] was found to be 43.1%. In addition, in test [4], the “% Cross reactivity” value worked out at 57%.

On to `COc1cc(CCN)c(OC)cc1Br` [Hapten 2C-B, 1-(4-bromo-2,5-dimethoxyphenyl)ethan-2-amine], for which the “% Cross-Reactivity” value was below 1.0% in test [2] and 100.0% in test [3]. For the same compound, the “% B/Bo” value was found to be 86.8% in test [3] (2C-B 1.25 ng/ml); 79.2% in test [3] (2C-B 2.5 ng/ml); 69.2% in test [3] (2C-B 5 ng/ml); 59.5% in test [3] (2C-B 10 ng/ml); 53.5% in test [3] (2C-B 20 ng/ml); 44.6% in test [3] (2C-B 40 ng/ml). Besides, the “% B/Bo” value in test [3] (2C-B 80 ng/ml) came to 38.1%. Besides, the “IC50 (standard concentration which produces 50% inhibition of maximal signal)” value in test [3] is 0.024618 µg/mL; in test [3] (listed as 2CB), “is 24.6 ng/ml)”. Moreover, the cross-reactivity entry in test [5] is reported as “does not show cross-reactivity”; in test [6], 36.0%; in test [7], 3.0%.

Regarding `COc1cc(CCN)c(OC)cc1Cl` [Hapten 2C-C, 1-(4-chloro-2,5-dimethoxyphenyl)ethan-2-amine], the “% Cross-Reactivity” value in test [2] was below 1.0%; in test [3] it was 148.6%.

With `COc1cc(CCN)c(OC)cc1C#N` [Hapten 2C-CN, 1-(4-cyano-2,5-dimethoxyphenyl)ethan-2-amine], the “% Cross-Reactivity” value in test [2] was below 1.0%; in test [3] it was 66.8%.

For `COc1cc(CCN)c(OC)cc1C` [Hapten 2C-D, 1-(2,5-dimethoxy4-methylphenyl)ethan-2-amine], the “% Cross-Reactivity” value is recorded as below 1.0% in test [2] and 308.3% in test [3].

With `CCc1cc(OC)c(CCN)cc1OC` [Hapten 2C-E, 1-(2,5-dimethoxy-4-ethylphenyl)ethan-2-amine], the “% Cross-Reactivity” value in test [2] was below 1.0%; in test [3] it was 178.8%.

In the case of `COc1ccc(OC)c(CCN)c1` [Hapten 2C-H], the cross-reactivity result in test [5] is listed as “does not show cross-reactivity”; in test [6], “none”; in test [7], 3.1%.

For `COc1cc(CCN)c(OC)cc1I` [Hapten 2C-I, 1-(2,5-dimethoxy-4-iodophenyl)ethan-2-amine], the cross-reactivity result in test [5] is “does not show cross-reactivity”; in test [6], 28.6%; in test [7], “none”.

Consider `CCCc1cc(OC)c(CCN)cc1OC` [Hapten 2C-P, 1-(2,5-dimethoxy-4-propylphenyl)ethan-2-amine], for which the results for the “% Cross-Reactivity” value in test [2] and in test [3] were below 1.0% and 276.8%, respectively.

For the compound `COc1cc(SC(C)C)c(OC)cc1CCN` [Hapten 2C-T-4], the results for the cross-reactivity entry in test [5], in test [6] and in test [7] were “does not show cross-reactivity”, “none” and 2.2%, respectively.

Consider `CN[C@@H](C)Cc1ccccc1` [Methamphetamine], for which the “% Cross-Reactivity” value in test [2] is given as below 1.0%.

With `COc1cc(OC)c(OC)cc1CC(C)N` (centres unmarked) [TMA, 2,4,5-trimethoxyamphetamine], in test [2], the “% Cross-Reactivity” value was found to be 9.8%. Also, the “% Cross reactivity” value in test [4] came out at 5%.
